Values quoted from earlier work as cited in patent US20090215766A1, “TETRACYCLIC INHIBITORS OF JANUS KINASES” (Incyte Corporation, priority 2004, published 2009).

Columns and labels:
[1] = system: IL-6-dependent MM cell lines
[2] = system: myeloid dendritic cells (DCs); details: CD40-induced maturation of myeloid DCs
[3] = system: NOD mouse model of autoimmune type 1 diabetes

## N#C/C(=C\c1ccc(O)c(O)c1)C(=O)NCc1ccccc1 [tyrphostin AG490]
[1]
  ERK2 and STAT3 phosphorylation: inhibited
  JAK2 kinase activity: inhibited
  apoptosis: induced
  cell proliferation: suppressed

## COc1cc2ncnc(Nc3ccc(O)c(Br)c3)c2cc1OC [WHI-P-154]
[2]
  CD40-induced DC maturation effects (costimulatory molecule expression, IL-12 production, allogeneic stimulatory capacity): prevented these effects

## COc1cc2ncnc(Nc3ccc(O)cc3)c2cc1OC [JANEX-1]
[3]
  onset of diabetes: delayed the onset of diabetes
